# Assays:
# [1] = target: T1, Muscarinic acetylcholine receptor M4 (Homo sapiens) (UniProt P08173); assay: Positive allosteric modulator activity at human M4 receptor expressed in CHO cells co-expressing Gqi5 assessed as maximal response to ACh by calcium mobilization assay relative to contol; assay type: cell-based; conditions: filed as positive allosteric modulator
# T1 sequence (whole entry): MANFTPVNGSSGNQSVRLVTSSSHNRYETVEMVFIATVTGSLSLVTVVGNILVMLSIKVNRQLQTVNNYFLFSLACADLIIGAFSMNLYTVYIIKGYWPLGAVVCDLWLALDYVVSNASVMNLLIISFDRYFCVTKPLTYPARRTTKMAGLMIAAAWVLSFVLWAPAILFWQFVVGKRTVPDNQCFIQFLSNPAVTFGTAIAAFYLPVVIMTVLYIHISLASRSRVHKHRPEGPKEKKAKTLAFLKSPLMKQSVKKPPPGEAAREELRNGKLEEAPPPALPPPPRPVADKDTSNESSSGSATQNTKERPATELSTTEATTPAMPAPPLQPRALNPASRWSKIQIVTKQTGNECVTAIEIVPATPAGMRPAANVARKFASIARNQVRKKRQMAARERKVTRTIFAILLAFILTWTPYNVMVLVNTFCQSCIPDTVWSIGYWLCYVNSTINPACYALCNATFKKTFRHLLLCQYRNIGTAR
# [2] = target: T2, Muscarinic acetylcholine receptor M4 (Homo sapiens, UniProt P08173); assay: Positive allosteric modulator activity at human M4 receptor expressed in CHO cells co-expressing Gqi5 in presence of EC20 concentration of acetylcholine by calcium mobilization assay; assay type: cell-based
# T2 sequence (P08173 whole entry): T1 sequence (whole entry)
Activity [1] [%],EC50 ([2]; read-out: EC50) [µM],EC50 ([2]; read-out: pEC50 (converted)) [µM],pEC50 ([2]; cho),SMILES
71.2,0.0434,–,–,COc1ccc(CNC(=O)c2sc3nnc(C)c(C)c3c2N)c(F)c1F
75.3,0.0841,–,–,COc1c(F)cc(CNC(=O)c2sc3nnc(C)c(C)c3c2N)cc1F
80.8,0.142,–,–,COc1ncc(CNC(=O)c2sc3nnc(C)c(C)c3c2N)cc1F
83.1,0.0591,0.0603,–,Cc1nnc2sc(C(=O)NCc3ccc(O)c(F)c3)c(N)c2c1C
87.1,0.1,–,–,COc1cc(F)c(CNC(=O)c2sc3nnc(C)c(C)c3c2N)c(F)c1
69.8,0.0967,–,–,Cc1nnc2sc(C(=O)NCc3ccc(O)cc3)c(N)c2c1C
76.9,0.239,–,–,COc1ccc(CNC(=O)c2sc3nnc(C)c(C)c3c2N)cn1
–,> 10,–,< 5,COc1ccc([C@@H](C)NC(=O)c2sc3nnc(C)c(C)c3c2N)cc1F
62.4,0.508,–,–,COc1ccc([C@H](C)NC(=O)c2sc3nnc(C)c(C)c3c2N)cc1F
75.5,0.0906,–,–,COc1ccc(CNC(=O)c2sc3nnc(C)c(C)c3c2N)c(F)c1
83.7,0.13,–,–,COc1ccc(CNC(=O)c2sc3nnc(C)c(C)c3c2N)cc1
68.5,0.0414,–,–,COc1cc(F)c(CNC(=O)c2sc3nnc(C)c(C)c3c2N)cc1F
